Test results from US12129491B2, “Methods and compositions relating to lung cell differentiation” (CHILDREN'S MEDICAL CENTER CORPORATION, priority 2016, dated 2024).

What was measured:
Type in all cases: cell-based, mouse
[1] = test system: BASC (Bronchioalveolar Stem Cell) cultures; experiment: 3D organoid culture of BASC: organoid morphology, lineage and staining
Source text: (§1) Quantification and statistical analysis of organoid morphologies from cultures grown with UNC0638 or DMSO control. *=P<0.05, two tailed independent samples T-test
Graphs depicts quantification of organoid lineage proportions in UNC0638 and DMSO treated cultures. On the top graph bronchiolar and tracheobronichiolar organoids are counted separately. On the bottom graph these organoids are counted together. *=P<0.05, two tailed independent samples T-test
FIG. 6 depicts graphs of the quantification of PAS and Alcian Blue Stained Organoids in DMSO and UNC0638 treated Organoids.
(§2) AT2 cells are only capable of producing alveolar morphological organoids (FIG. 3).
(§3) UNC0638 treatment reduces the proportion of Sca-1+ve alveolar organoids and increases the proportion of small, undifferentiated organoids. (FIG. 4) 250 nM UNC0638 reduces alveolar colony formation and increase ciliated organoid formation (FIG. 5).
Organoids with visible movement are observed in control cultures, but are more frequent in 250 nM UNC0638 treated cultures. […] Some organoids in UNC0638 cultures (and some rare organoids in DMSO cultures) can be seen to be visibly moving. They have currents in their lumen causing material within to move around. […] Currents are always counter clockwise, consistent with direction of cilia.
Ciliated organoids have large amounts of material that stain for PAS and Alcian Blue, like mucus produced by goblet cells in the lung upper airways. This material is likely what can be seen to revolve in the organoids with interior lumen currents. G9a/G1p inhibition increases the proportion and overall number of PAS/Alcian Blue Staining Organoids (FIG. 6). PAS stained cells resemble goblet cells that produce mucus in the upper airway. […] This is precisely the same as the lung upper airways which have a lower layer of p63+ Keratin 5+ stem cells known as basal cells.

[2] = test system: AT2 (Alveolar Type 2) cultures; experiment: 3D organoid culture of AT2 cells: organoid formation; conditions: AT2 cultures (FIG. 3)
Source text: as §2

BASC 3D co-culture = BASC 3D co-culture resorted by FACS for Sca-1 expressing cells; conditions: 3D cultures after 3 weeks growth, vs DMSO control (FIG. 2)
[3] = test system: CK1750 and SC241 cell lines; experiment: Flow cytometry screen of adenocarcinoma cell lines for stem cell surface marker Sca-1 with a small molecule library
Source text: The X axis crosses at the level of Sca-1 fluorescence measured in cells with the vehicle only control (DMSO). Bars up thus represent an increase in Sca-1 and Bars down represent a decrease. Each bar represents a different chemical treatment.
The CK1750 and SC241 cell lines derived from K-ras; p53fl/fl mouse adenocarcinoma tumors are highly enriched for Sca-1 and CD24. These cell lines were screened for factors that alter the expression of Sca1, CD24 or both markers, using the Stem Cell Core's Pilot Known Bioactives library, a small molecule library enriched in inhibitors of chromatin regulators (FIG. 1).

[4] = test system: Sca-1−ve and Sca-1+ve sorted cells; experiment: Quantification of organoid morphologies from Sca-1 sorted cells
Description: as §1, §3

## COc1cc2c(NC3CCN(C(C)C)CC3)nc(C3CCCCC3)nc2cc1OCCCN1CCCC1 [UNC0638]
[1]; 250 nM (FIG. 5)
  alveolar colony formation: reduces
  ciliated organoid formation: increase
[1]; 250 nM, vs control cultures
  organoids with visible movement: more frequent
[1]; BASC cultures (FIG. 3)
  organoids with alveolar morphology: significantly fewer
[1]; lung stem cell cultures, beating multiciliated, goblet like and P63+ Kertatin 5+ cells
  organoids that resemble the large airways of the lung: more organoids
[1]; treated cultures
  H&E staining of Acetylated tubulin positive organoids: many of the cells are muticiliated
[1]; treated cultures vs control
  organoids that stained with Acetylated tubulin, a marker of Ciliated cells: significantly more
[1]; vs DMSO control, *=P<0.05, two tailed independent samples T-test (FIG. 4, FIG. 5)
  alveolar organoid differentiation: reduces
[1]; vs DMSO, *=P<0.05, two tailed independent samples T-test (FIG. 5)
  ciliated organoid differentiation: increases
[2]
  number of organoids: significantly fewer organoids
BASC 3D co-culture
  Sca-1 expressing cells among stem cell-derived cells: many more Sca-1 expressing cells
[3]; among library chemicals, vs DMSO vehicle control (FIG. 1)
  change in Sca-1 on the cell surface: largest increase in Sca-1
[3]; flow cytometry screen of adenocarcinoma cell lines
  enrichment for high Sca-1 expressing, TPC-like cells: enriches for high Sca-1 expressing, TPC-like cells
[4]; Sca-1+ve (FIG. 4)
  proportion of alveolar organoids: reduces
  proportion of small, undifferentiated organoids: increases
[4]; Sca-1−ve sorted cells (FIG. 4)
  organoid formation: significantly reduces
